The values that follow come from paper PMC9785194, “New Dibenzo-α-pyrone Derivatives with α-Glucosidase Inhibitory Activities from the Marine-Derived Fungus Alternaria alternata” (Marine Drugs, 2022).

Molecules are shown by their SMILES.

In assay [1] the target is α-glucosidase. In words: α-glucosidase inhibition assay (p-NPG substrate). In kind it is biochemical, Saccharomyces cerevisiae. The note with it: for IC50: 0.5 U/mL enzyme, p-NPG substrate, 37 °C; for α-glucosidase inhibition rate: at a concentration of 400 µM. As to the method:
(§1) Optical rotations were measured with an Anton Paar MCP 200 Automatic Polarimeter (Anton Paar, Graz, Austria). The UV data were recorded on a Thermo Genesys-10S UV/Vis spectrophotometer (Thermo Fisher Scientific, Waltham, MA, USA). ECD spectra were recorded with a JASCO J-815 spectropolarimeter (JASCO, Tsukuba, Japan) by using CH3OH as the solvent. Infrared spectra were obtained on a Nicolet IS5 FT-IR spectrophotometer (Thermo Fisher Scientific, Waltham, MA, USA). ^1H and ^13C NMR spectroscopic data were acquired with a Bruker Avance-500 spectrometer (Bruker, Bremen, Germany) using the solvent signals as a reference (CD3OD: δH 3.31/δC 49.00). HRESIMS data were obtained using an Agilent Accurate-Mass-Q-TOF LC/MS 6520 instrument (Agilent Technologies, Santa Clara, CA, USA) equipped with an electrospray ionization (ESI) source. Semi-preparative HPLC separation was performed on an Agilent 1260 instrument equipped with a variable-wavelength UV detector (Agilent Technologies Inc., CA, USA) using a YMC-pack ODS-A (10 × 250 mm, 5 μm, 2 mL/min, YMC CO., LTD., Kyoto, Japan).
The α-glucosidase inhibitory activity assay was measured as described in previous reports. Briefly, 50 μL of 0.5 U/mL α-glucosidase and 25 μL of a series of solutions (0.1, 0.2, 0.4, 0.8 and 1.6 mM) of the test compounds 1−10 were added into 96-well plates. After incubation at 37 °C for 10 min, 25 μL of 25 mM p-NPG was added and further incubated at 37 °C for 10 min.

Assay [2] has as its system α-glucosidase. Nature of the assay: enzyme kinetics of α-glucosidase inhibition (Lineweaver-Burk and secondary plots). In kind it is biochemical, Saccharomyces cerevisiae. The note with it: for inhibition type against α-glucosidase: Lineweaver-Burk plots; for Ki: secondary plots, free enzyme, read-out: Ki (the inhibition constant of the free enzyme). As to the method: as §1
The inhibition types of compounds 2 and 3 on α-glucosidase were determined by Lineweaver−Burk plots according to a previous report. The α-glucosidase inhibition kinetics were determined with selected concentrations of p-NPG (1.5625, 3.125, 6.25, 12.5 and 25 mM) under different concentrations of 2 and 3 (200, 400 and 800 μM) by keeping the enzyme concentration at 0.5 U/mL. The inhibition constant was determined by the second plots of the apparent Km/Vm or 1/Vm versus the concentration of the inhibitor.

Assay [3] in a line: DPPH antioxidant scavenging assay. The note with it: 37 °C, 30 min, absorbance 517 nm. As to the method: The DPPH antioxidant scavenging assay was performed according to the previously reported method. Briefly, 50 µL of DPPH (0.34 mmol/L in EtOH) and 50 µL of a series of solutions (12.5, 25, 50, 100, and 200 μM) of the test compounds 1−10 were mixed in the wells of 96-well plates. Each mixture was incubated at 37 °C for 30 min in a dark environment. The absorbance was read at 517 nm using a microplate reader, employing distilled water as a blank for baseline correction. All experiments were performed in triplicate, and ascorbic acid was used as a positive control.
In general terms: DPPH is a stable violet radical that fades when it is reduced.

The compound `CC12CC(O)C(O)C=C1c1cc(O)cc(O)c1C(=O)O2` (stereo not drawn) [Compound 2, Alternolide B] came in with an IC50 against α-glucosidase [1] of 725.9 ± 4.75 µM. Moreover, in the assay on α-glucosidase [1] (400 µM), the α-glucosidase inhibition rate is 36.62%. Further, in the assay on α-glucosidase [2], the “inhibition type against α-glucosidase” value was “mixed-type inhibitors” and the Ki was found to be 347 µM.

The compound `CC12CC(O)C(O)C=C1c1cc(O)cc(O)c1C(=O)O2` (stereo not drawn) [Compound 3, Alternolide C] showed an IC50 against α-glucosidase [1] of 451 ± 6.95 µM. In the assay on α-glucosidase [1] (400 µM), this compound returned a α-glucosidase inhibition rate of 49.24%. In the assay on α-glucosidase [2], the “inhibition type against α-glucosidase” value is given as “mixed-type inhibitors” and the inhibition constant Ki turned out to be 108 µM.

On to `COc1cc(O)c2c(=O)oc3c(O)c(O)cc(C)c3c2c1` [Compound 6, 3′-hydroxyalternariol 5-O-methyl ether], for which the IC50 in assay [3] was determined as 83.9 ± 4.14 µM.

In the case of `COc1cc(O)c2c(=O)oc3cc(O)cc(CO)c3c2c1` [Compound 7, alternariol 1′-hydroxy-9-methyl ether], at α-glucosidase [1], the IC50 came out at 6.27 ± 0.68 µM and the α-glucosidase inhibition rate turned out to be 93.70%. The compound further showed an IC50 in assay [3] of 23.6 ± 1.23 µM.

As to `COc1cc2oc(=O)c3c(O)cc(O)cc3c2cc1O` [Compound 8, altenuisol], in the assay with α-glucosidase [1], the α-glucosidase inhibition rate was 37.29%.

As for `COc1cc(O)c2c(=O)oc3c(c2c1)[C@@H](C)CC3=O` [Compound 9, 1-deoxyrubralactone], the α-glucosidase inhibition rate in the assay with α-glucosidase [1] is 53.95%.

`O=C1O[C@H]([C@@H](O)CO)C(O)=C1O` [ascorbic acid, reference compound] displayed an IC50 in assay [3] of 23.7 ± 1.03 µM.

Broadly, the IC50 is the concentration at which inhibition is half-maximal. A low value points to greater potency in that assay. The Ki is a measure of affinity in units of concentration, obtained from inhibition or displacement.
